Source: patent US4376778A, “Antibiotic substances and processes for production thereof” (Meiji Seika Kaisha, Ltd., priority 1979, dated 1983)
Values after ≈ are worked out from the molar mass of the structure shown.

What was measured:
[1] = test system: Staphylococcus aureus FDA 209P JC-1; experiment: MIC by agar dilution method, Staphylococcus aureus FDA 209P JC-1; type: cell-based; details: FDA209P; Staphylococcus aureus FDA 209P JC-1, agar dilution; read-out: Minimum Inhibitory Concentration
Excerpt: (§1) The minimum inhibitory concentrations of the SF-2080A substance and SF-2080B substance against various microorganisms as measured by the agar dilution method are shown in Table 4 below.

[2] = test system: Klebsiella pneumoniae ATCC 27763; experiment: MIC by agar dilution method, Klebsiella pneumoniae ATCC 27763; type: cell-based; details: ATCC27763; Klebsiella pneumoniae ATCC 27763, agar dilution; read-out: Minimum Inhibitory Concentration
Excerpt: as §1

[3] = test system: various microorganisms; experiment: Agar dilution method, various microorganisms (overall statement); type: cell-based; details: overall statement in words
Excerpt: as §1

[4] = Solubility; type: physicochemical
[5] = test system: Staphylococcus aureus Smith; experiment: MIC by agar dilution method, Staphylococcus aureus Smith; type: cell-based; details: read-out: Minimum Inhibitory Concentration
Excerpt: as §1

[6] = test system: Bacillus subtilis ATCC 6633; experiment: MIC by agar dilution method, Bacillus subtilis ATCC 6633; type: cell-based; details: ATCC6633; Bacillus subtilis ATCC 6633, agar dilution; read-out: Minimum Inhibitory Concentration
Excerpt: as §1

[7] = test system: Diaporthe citri; experiment: MIC by agar dilution method, Diaporthe citri; type: cell-based; details: read-out: Minimum Inhibitory Concentration
Excerpt: as §1

[8] = test system: Staphylococcus epidermidis ATCC 14990; experiment: MIC by agar dilution method, Staphylococcus epidermidis ATCC 14990; type: cell-based; details: ATCC14990; Staphylococcus epidermidis ATCC 14990, agar dilution; read-out: Minimum Inhibitory Concentration
Excerpt: as §1

[9] = test system: Proteus vulgaris OX-19; experiment: MIC by agar dilution method, Proteus vulgaris OX-19; type: cell-based; details: OX19; Proteus vulgaris OX-19, agar dilution; read-out: Minimum Inhibitory Concentration
Excerpt: as §1

[10] = test system: Aspergillus fumigatus; experiment: MIC by agar dilution method, Aspergillus fumigatus; type: cell-based; details: read-out: Minimum Inhibitory Concentration
Excerpt: as §1

[11] = test system: Serratia marcescens No. 1; experiment: MIC by agar dilution method, Serratia marcescens No. 1; type: cell-based; details: Serratia marcescens No. 1, agar dilution; read-out: Minimum Inhibitory Concentration
Excerpt: as §1

[12] = Acute toxicity by intraperitoneal administration in mice; details: mouse, in vivo, ip
[13] = test system: Escherichia coli NIHJ JC-2; experiment: MIC by agar dilution method, Escherichia coli NIHJ JC-2; type: cell-based; details: NIHJJC2; Escherichia coli NIHJ JC-2, agar dilution; read-out: Minimum Inhibitory Concentration
Excerpt: as §1

[14] = test system: Salmonella typhi O-901-W; experiment: MIC by agar dilution method, Salmonella typhi O-901-W; type: cell-based; details: Salmonella enterica, read-out: Minimum Inhibitory Concentration
[15] = test system: Cryptococcus neoformans Cr-1; experiment: MIC by agar dilution method, Cryptococcus neoformans Cr-1; type: cell-based; details: CR1; Cryptococcus neoformans Cr-1, agar dilution; read-out: Minimum Inhibitory Concentration
Excerpt: as §1

[16] = test system: Escherichia coli K-12 IAM 1264; experiment: MIC by agar dilution method, Escherichia coli K-12 IAM 1264; type: cell-based; details: IAM1264; Escherichia coli K-12 IAM 1264, agar dilution; read-out: Minimum Inhibitory Concentration
Excerpt: as §1

[17] = test system: Trichophyton interdigital; experiment: MIC by agar dilution method, Trichophyton interdigital; type: cell-based; details: read-out: Minimum Inhibitory Concentration
Excerpt: as §1

[18] = test system: Trichophyton asteroides; experiment: MIC by agar dilution method, Trichophyton asteroides; type: cell-based; details: read-out: Minimum Inhibitory Concentration
Excerpt: as §1

[19] = test system: Pseudomonas aeruginosa IAM 1007; experiment: MIC by agar dilution method, Pseudomonas aeruginosa IAM 1007; type: cell-based; details: IAM1007; Pseudomonas aeruginosa IAM 1007, agar dilution; read-out: Minimum Inhibitory Concentration
Excerpt: as §1

[20] = test system: Pyricularia oryzae; experiment: microbe, parasite or virus in culture; type: cell-based; details: read-out: Minimum Inhibitory Concentration
[21] = test system: Shigella dysenteriae Shigae; experiment: microbe, parasite or virus in culture; type: cell-based; details: read-out: Minimum Inhibitory Concentration
[22] = test system: Trichophyton asteroides; experiment: Infection treatment test of guinea pigs infected by Trichophyton asteroides, observation with the naked eye; type: in vivo, Trichophyton asteroides; guinea pig; details: for Effect on flush / Effect on scale / Effect on thickening of the affected skin: guinea pig, 1% solution, topical, once a day for 8 days, naked eye
Method: (§2) An infection treatment test of guinea pigs infected by a strain of Trichophyton asteroides on their backs was carried out using the liquid preparation having formulation as shown in Table 6.
(§3) Hairs were pulled off from a white Hartly guinea pig (4 guinea pigs per group) at 4 areas of the back thereof (2 areas on each side, 4×6 cm) and a Trichophyton asteroides-floating solution (liquid Sabouraud's culture medium; number of living cells: 2×10^7 /ml) was infected with a brush in an amount of 0.5 ml per each area. After 2 days from the infection, 0.25 ml of a 1% solution of SF-2080A substance (see Table 6) was applied at one area on each side, once a day and continuously for 8 days.
(§4) The same procedure as above was carried out, except using a 1% solution of pyrrolnitrin and a 1% solution of clotrimazole. Guinea pigs so treated were compared with those to which no treatment was applied.

[23] = test system: Trichophyton asteroides; experiment: Infection treatment test of guinea pigs infected by Trichophyton asteroides, infected organism cultivation positive ratio; type: in vivo, Trichophyton asteroides; guinea pig; details: for infected organism cultivation positive ratio: after 8 days treatment, 1% solution, guinea pig
Method: as §2, §3, §4
After treatment for 8 days, 3 skin pieces were collected from each affecte area and cultivated on a Sabouraud's agar plate for 7 days to observe the infected organism cultivation positive ratio.

[24] = test system: fungi; experiment: Plate dilution method, fungi (overall statement); type: cell-based; details: overall statement in words
Excerpt: (§5) The minimum growth inhibitory concentration (MIC) against each test strain according to the plate dilution method is shown below: […]

[25] = test system: Aspergillus fumigatus; experiment: MIC by plate dilution method, Aspergillus fumigatus; type: cell-based; details: read-out: minimum growth inhibitory concentration (MIC)
Excerpt: as §5

[26] = test system: Trichophyton asteroides; experiment: MIC by plate dilution method, Trichophyton asteroides; type: cell-based; details: read-out: minimum growth inhibitory concentration (MIC)
Excerpt: as §5

[27] = test system: Cryptococcus neoformans Cr-1; experiment: MIC by plate dilution method, Cryptococcus neoformans CR-1; type: cell-based; details: CR1; Cryptococcus neoformans CR-1, plate dilution; read-out: minimum growth inhibitory concentration (MIC)
Excerpt: as §5

[28] = test system: Candida albicans C-A-24; experiment: MIC by plate dilution method, Candida albicans C-A-24; type: cell-based; details: CA24; Candida albicans C-A-24, plate dilution; read-out: minimum growth inhibitory concentration (MIC)
Excerpt: as §5

[29] = test system: Trichophyton interdigitale; experiment: MIC by plate dilution method, Trichophyton interdigitale; type: cell-based; details: read-out: minimum growth inhibitory concentration (MIC)
Excerpt: as §5

[30] = as compared with pyrrolnitrin and clotrimazole, statement in words

| Structure (SMILES) | MIC [1] [µg/mL] | MIC [2] [µg/mL] | antibacterial/antimicrobial effectiveness against the strains tested [3] | Solubility in acetone [4] | Solubility in chloroform [4] | Solubility in methanol [4] | MIC [5] [µg/mL] | MIC [6] [µg/mL] | MIC [7] [µg/mL] | MIC [8] [µg/mL] | MIC [9] [µg/mL] | MIC [10] [µg/mL] | MIC [11] [µg/mL] | MIC [13] [µg/mL] | MIC [14] [µg/mL] | MIC [15] [µg/mL] | MIC [16] [µg/mL] | infected organism cultivation positive ratio ([23]; day of cultivation 3) [%] | infected organism cultivation positive ratio ([23]; day of cultivation 5) [%] | infected organism cultivation positive ratio ([23]; day of cultivation 7) [%] | also measured |
| --- | --- | --- | --- | --- | --- | --- | --- | --- | --- | --- | --- | --- | --- | --- | --- | --- | --- | --- | --- | --- | --- |
| O=[N+]([O-])c1c(Cc2cc(Cl)cc(Cl)c2O)[nH]c(Cl)c1Cl [SF-2080B substance] | 0.2 (≈ 0.562 µM) | > 100 | very effective against a limited number of strains, but it is less active or lacks toward the others | easily soluble | soluble | easily soluble | 0.2 (≈ 0.562 µM) | 0.1 (≈ 0.281 µM) | 0.4 (≈ 1.12 µM) | 0.1 (≈ 0.281 µM) | 0.78 (≈ 2.19 µM) | > 100 | > 100 | 100 (≈ 281 µM) | 50 (≈ 140 µM) | > 100 | 100 (≈ 281 µM) | – | – | – | acute toxicity, fraction of mice that survived ([12]; 100 mg/kg): 2/3; MIC [17]: 100 µg/mL (≈ 281 µM); MIC [18]: > 100 µg/mL; MIC [19]: > 100 µg/mL; MIC [20]: 3.13 µg/mL (≈ 8.79 µM); MIC [21]: 50 µg/mL (≈ 140 µM) |
| O=[N+]([O-])c1c(Cl)cccc1-c1c[nH]cc1Cl [pyrrolnitrin] | – | – | – | – | – | – | – | – | – | – | – | – | – | – | – | – | – | 62 | 87 | 87 | Effect on flush [22]: Ineffective; Effect on scale [22]: Ineffective; Effect on thickening of the affected skin [22]: Effective |
| O=[N+]([O-])c1c[nH]c(Cl)c1Cl [SF-2080A substance] | 1.56 (≈ 8.62 µM) | 6.25 (≈ 34.5 µM) | generally effective against all strains of bacteria tested | easily soluble | soluble | easily soluble | 3.13 (≈ 17.3 µM) | 1.56 (≈ 8.62 µM) | 0.8 (≈ 4.42 µM) | 3.13 (≈ 17.3 µM) | 6.25 (≈ 34.5 µM) | 25 (≈ 138 µM) | 6.25 (≈ 34.5 µM) | 6.25 (≈ 34.5 µM) | 6.25 (≈ 34.5 µM) | 25 (≈ 138 µM) | 6.25 (≈ 34.5 µM) | 25 | 37 | 37 | inhibition of growth of fungi [24]: inhibits the growth of fungi; MIC [25]: 25 µg/mL (≈ 138 µM); MIC [26]: 3.12 µg/mL (≈ 17.2 µM); therapeutic effect, observation with the naked eye [22, 30]: excellent therapeutic effects; treatment effect in thickening of the affected skin, flush, and scale ([22]; compared with 1% pyrrolnitrin and 1% clotrimazole, statement in words): best treatment effect; acute toxicity, survival ([12]; 10 mg/kg): all mice survived; acute toxicity, mortality ([12]; 30 mg/kg): all mice died; MIC [27]: 25 µg/mL (≈ 138 µM); therapeutic effect, cultivation positive ratio [23, 30]: excellent therapeutic effects; decrease in the cultivation positive ratio ([23]; compared with pyrrolnitrin-dosed, clotrimazole-dosed and no treatment groups, in words): evident decrease; MIC [28]: 100 µg/mL (≈ 553 µM); MIC [29]: 1.56 µg/mL (≈ 8.62 µM); MIC [17]: 1.56 µg/mL (≈ 8.62 µM); MIC [18]: 3.12 µg/mL (≈ 17.2 µM); MIC [19]: 6.25 µg/mL (≈ 34.5 µM); MIC [20]: 0.8 µg/mL (≈ 4.42 µM); MIC [21]: 3.13 µg/mL (≈ 17.3 µM) |
| Clc1ccccc1C(c1ccccc1)(c1ccccc1)n1ccnc1 [clotrimazole] | – | – | – | – | – | – | – | – | – | – | – | – | – | – | – | – | – | 75 | 96 | 96 | Effect on flush [22]: Ineffective; Effect on scale [22]: Effective; Effect on thickening of the affected skin [22]: Effective |
